The record followed here is patent publication US20240408066A1, “Treatment Of Conditions Associated With Stress Granule Formation” (priority 2022, published 2024).

Assay [1] addresses T1, recombinant mouse TIA1-ECFP+TIA1-EYFP (Mus musculus, UniProt P52912).
T1 construct: Full-length mouse TIA1 cDNA was generated from standard RT-PCR from total mouse brain RNA; 6xHis (N); made in house; host or cells: E. coli BL21 AI
T1 sequence (P52912 1-386) 1: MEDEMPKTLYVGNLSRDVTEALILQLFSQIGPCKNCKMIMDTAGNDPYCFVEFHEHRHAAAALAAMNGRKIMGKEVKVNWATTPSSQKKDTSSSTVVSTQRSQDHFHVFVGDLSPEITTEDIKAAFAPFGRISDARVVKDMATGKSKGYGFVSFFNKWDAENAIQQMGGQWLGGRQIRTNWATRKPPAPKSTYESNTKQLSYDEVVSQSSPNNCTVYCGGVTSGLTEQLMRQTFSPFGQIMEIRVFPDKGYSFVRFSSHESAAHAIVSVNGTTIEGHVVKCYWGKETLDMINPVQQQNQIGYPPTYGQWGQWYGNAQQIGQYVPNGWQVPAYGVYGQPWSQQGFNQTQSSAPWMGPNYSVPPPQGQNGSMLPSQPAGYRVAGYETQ
T1 sequence (P52912 1-386) 2: T1 sequence (P52912 1-386) 1
The experiment in a line: In vitro FRET assay of TIA1 multimerization. The class given is binding. The settings on record: TIA1-ECFP+TIA1-EYFP 10 ug/ml each; test compound 0-40 μM; FIG. 4. The text has this:
The assay that takes advantage of a phenomenon involving the transfer of energy between two compatible fluorescent proteins. In particular, the fluorescent proteins CFP and YFP (cyan fluorescent protein and yellow fluorescent protein, respectively) emit fluorescent light of characteristic wavelengths when excited by laser radiation. CFP or YFP was tethered to a TIA1 protein and the hybrid proteins were mixed together. Subsequently, if TIA1 self-interacts (dimerizes), the tethered CFP and YFP proteins are brought into close proximity to one another. When this occurs, laser excitation of CFP leads to a release of energy that is absorbed by YFP, which can be detected in the assay. This assay can be employed in the presence of other agents, such as small molecule compounds, to determine whether their presence has any effect on dimerization of TIA1. This screen was employed to assay compounds in a chemical library in order to identify compounds that effect TIA1 binding and dimerization or multimerization.
One way to establish that test compounds bind recombinant TIA1 is to perform a Förster resonance energy transfer (FRET) experiment. Binding of test compound to monomeric protein is inferred by a change in FRET signal upon ligand-induced multimerization of suitably tagged (c.g.,-ECFP and -EYFP) fusion proteins. In other words, not only must the compound bind to TIA1-ECFP and TIA1-EYFP, it must also induce a change in multimeric state such that energy can be transferred between the ECFP and EYFP tags. […]
Plasmids encoding mouse TIA1-ECFP and TIA1-EYFP were generated by standard PCR-based cloning techniques. […] Samples are read in real-time with a fluorescence microplate reader. To measure donor FRET, samples are excited at 430+30 nm, and […] is measured at 480+20 nm. Compounds that drive multimerization of the fusion proteins cause proximal localization of the ECFP and EYFP moieties, leading to a reduction in ECFP fluorescence with ECFP excitation due to energy transfer to EYFP. […]

The target of assay [2] is T2, recombinant mouse TIA1 with human recombinant tau (0N4R isoform) (Mus musculus, UniProt P52912).
T2 sequence (P52912 1-386): T1 sequence (P52912 1-386) 1
The assay can be described thus: TIA1-induced oligomerization of tau protein in vitro (oTau immunoblotting). Format: biochemical. The settings on record: fixed ratio of TIA1:tau; as a function of drug concentration and time (0.5-2 h); FIG. 5 right panels. The protocol: Oligomeric tau is the most pathological configuration of the protein.
Purified full-length recombinant mouse TIA1 protein was generated from standard cloning methods followed by standard protocols for bacterial expression and purification. Recombinant TIA1 was incubated with commercially available human recombinant tau (ON4R isoform) obtained from R&D Systems at the indicated molar ratios/concentrations. After indicated incubation times, reactions were spotted onto nitrocellulose membrane followed by immunoblotting with primary antibodies that recognize oligomeric tau (oTau) or TIA1. Fluorescently labeled secondary antibody staining against indicated primary antibodies was followed by quantitative image analysis using a Li-COR Odyssey system. Experiment A evaluates the impact of TIA1:tau molar ratio on tau oligomerization and whether OTX0049 at a single test concentration interferes with TIA1-dependent tau oligomerization (FIG. 5, left panels). The experiment represented in the right panels measure the dose-response of OTX0049 and OTX1017 (Formula I in claims) inhibition of TIA1-dependent tau oligomerization at a fixed ratio of recombinant TIA1:tau (FIG. 5, right panels).
(Immunoblotting shows a protein as a band on a membrane.)

The test system of the next assay is rTg4510 transgenic mice. The experiment in a line: Cellular pathology in rTg4510 mouse model (GFAP and NeuN immunohistochemistry). Format: in vivo. The settings on record: 5 mg/kg i.p. once per week for 7 weeks beginning at 77 d; FIG. 7. Here is the method:
rTg4510 transgenic mice are a well-established model of tauopathy based on expression of a human tau mutant (P301L). […] Given that these cellular pathological events are driven by tau, TIA1 antagonists compounds should limit tau-dependent pathology.
rTg4510 transgenic mice were treated with DMSO vehicle or OTX1017 (Formula I in claims 5 mg/kg i.p.) once per week for 7 weeks beginning at 77 d. Hippocampal slices were then prepared for conventional immunohistochemistry with GFAP (neuroinflammation marker) and NeuN (neuronal marker), followed by quantitation using NIH ImageJ. GFAP signal was quantitated in cortex (ctx) (white arrows). NeuN staining was used to calculate average thickness of the CA1 pyramidal cell layer for each slice.

Another assay concerns PS19 transgenic mice. The experiment in a line: Tau oligomerization in vivo in PS19 mice (hippocampal dot blots, oligomeric tau-specific antibody). The settings on record: 10 mg/kg i.p. once per week for 6 weeks; FIG. 10. Further details: species or system mouse. Here is the method:
FIG. 10 illustrates the inhibition of tau oligomerization in vivo by OTX1017. Mice were treated with 10 mg/kg OTX1017 i.p., once per week, for 6 weeks, hippocampal extracts were prepared, and dot blots were performed with an oligomeric tau-specific antibody.

As to `CCOC(=O)c1ccc(-n2sc3ccccc3c2=O)cc1` [Formula III], in assay [1], the “multimerization of TIA1 (FRET signal)” value was “demonstrate FRET signals indicative of TIA1 multimerization”.
As for `Cc1ccc(C)c(-n2[se]c3cc(F)ccc3c2=O)c1` [OTX1017], the “multimerization of TIA1 (FRET signal)” value in assay [1] is recorded as “Induce Multimerization of Recombinant Mouse TIA1”. Besides, the “TIA1-dependent tau oligomerization, dose-response” value in assay [2] is on record as “drug-dependent reduction of TIA1-dependent tau oligomerization”. In the assay on rTg4510 transgenic mice, the “GFAP staining in the cortex (neuroinflammation)” value is reported as “ameliorated” and the “thickness of the CA1 pyramidal layer neurons (NeuN staining)” value is recorded as “ameliorated by drug treatment”. Moreover, the “oligomeric tau in the hippocampus” value in the assay on PS19 transgenic mice is “significantly reduces the presence of oligomeric tau in the hippocampus”.
As for `Cc1ccc(C)c(-n2[se]c3cncnc3c2=O)c1` [OTX1018], the “multimerization of TIA1 (FRET signal)” value in assay [1] is “Induce Multimerization of Recombinant Mouse TIA1”.
